Measured values taken from publication PMC10128460, “Discovery of the first-in-class potent and isoform-selective human carbonic anhydrase III inhibitors” (Journal of Enzyme Inhibition and Medicinal Chemistry, 2023).
Values joined by “and” are separate entries in the source; they are usually repeats but may differ in a detail not shown here. Identical values can stand only once.

Experiments:
hCA IV = target: T1, hCA IV (Homo sapiens, UniProt P22748); assay: Stopped-Flow CO2 hydrase assay, hCA IV; assay type: biochemical; conditions: mean from 3 assays, errors ± 5–10%
T1 construct: made in house
Procedure: (§1) An Applied Photophysics stopped-flow instrument has been used for assaying the CA catalysed CO2 hydration activity[47]. […] The CO2 concentrations ranged from 1.7 to 17 mM for the determination of the kinetic parameters and inhibition constants. […] The uncatalysed rates were determined in the same manner and subtracted from the total observed rates. Stock solutions of inhibitor (0.1 mM) were prepared in distilled − deionized water and dilutions up to 0.01 nM were done thereafter with the assay buffer. Inhibitor and enzyme solutions were preincubated together for 15 min at room temperature before assay to allow for the formation of the E − I complex. The inhibition constants were obtained by nonlinear least-squares methods using PRISM 3 and the Cheng − Prusoff equation, as reported earlier[48]^,[49], and represent the mean from at least three different determinations. […] All hCA isoforms were recombinant ones obtained in-house as reported earlier[50].

hCA III = target: T2, hCA III (Homo sapiens, UniProt P07451); assay: Stopped-Flow CO2 hydrase assay, hCA III; assay type: biochemical; conditions: for Selectivity Index (SI) hCA I/hCA III: ratio of KI hCA I to KI hCA III; for Selectivity Index (SI) hCA II/hCA III: ratio of KI hCA II to KI hCA III; for Ki: stopped-flow CO2 hydrase, mean from 3 assays, errors ± 5–10%
T2 construct: made in house
Procedure: as §1

hCA I = target: T3, hCA I (Homo sapiens, UniProt P00915); assay: Stopped-Flow CO2 hydrase assay, hCA I; assay type: biochemical; conditions: mean from 3 assays, errors ± 5–10%
T3 construct: made in house
Procedure: as §1

hCA VB = target: T4, hCA VB (Homo sapiens, UniProt Q9Y2D0); assay: Stopped-Flow CO2 hydrase assay, hCA VB; assay type: biochemical; conditions: mean from 3 assays, errors ± 5–10%
T4 construct: made in house
Procedure: as §1

hCA XII = target: T5, hCA XII (Homo sapiens, UniProt O43570); assay: Stopped-Flow CO2 hydrase assay, hCA XII; assay type: biochemical; conditions: mean from 3 assays, errors ± 5–10%
T5 construct: made in house
Procedure: as §1

hCA VA = target: T6, hCA VA (Homo sapiens, UniProt P35218); assay: Stopped-Flow CO2 hydrase assay, hCA VA; assay type: biochemical; conditions: stopped-flow CO2 hydrase, mean from 3 assays, errors ± 5–10%; read-out: KI hCA VA
T6 construct: made in house
Procedure: as §1

hCA VII = target: T7, hCA VII (Homo sapiens, UniProt P43166); assay: Stopped-Flow CO2 hydrase assay, hCA VII; assay type: biochemical; conditions: mean from 3 assays, errors ± 5–10%
T7 construct: made in house
Procedure: as §1

hCA II = target: T8, hCA II (Homo sapiens, UniProt P00918); assay: Stopped-Flow CO2 hydrase assay, hCA II; assay type: biochemical; conditions: mean from 3 assays, errors ± 5–10%
T8 construct: made in house
Procedure: as §1

T3 sequence (P00915 whole entry): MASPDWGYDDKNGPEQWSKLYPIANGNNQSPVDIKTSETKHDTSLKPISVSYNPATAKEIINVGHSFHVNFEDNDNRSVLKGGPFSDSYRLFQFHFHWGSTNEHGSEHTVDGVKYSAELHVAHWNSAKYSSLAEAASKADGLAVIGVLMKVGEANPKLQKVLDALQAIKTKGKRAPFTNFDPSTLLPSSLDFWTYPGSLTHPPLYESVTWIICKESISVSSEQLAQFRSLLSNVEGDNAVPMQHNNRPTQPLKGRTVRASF
T5 sequence (O43570 25-354): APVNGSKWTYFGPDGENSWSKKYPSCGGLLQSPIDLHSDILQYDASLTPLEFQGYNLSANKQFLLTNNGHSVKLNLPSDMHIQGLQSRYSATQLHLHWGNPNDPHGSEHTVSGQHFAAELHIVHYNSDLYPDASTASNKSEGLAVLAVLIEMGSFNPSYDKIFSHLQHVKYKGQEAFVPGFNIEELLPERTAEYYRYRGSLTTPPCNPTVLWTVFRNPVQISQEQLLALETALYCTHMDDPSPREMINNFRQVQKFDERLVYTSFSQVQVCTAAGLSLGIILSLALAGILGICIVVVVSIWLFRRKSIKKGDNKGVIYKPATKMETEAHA
T4 sequence (Q9Y2D0 34-317): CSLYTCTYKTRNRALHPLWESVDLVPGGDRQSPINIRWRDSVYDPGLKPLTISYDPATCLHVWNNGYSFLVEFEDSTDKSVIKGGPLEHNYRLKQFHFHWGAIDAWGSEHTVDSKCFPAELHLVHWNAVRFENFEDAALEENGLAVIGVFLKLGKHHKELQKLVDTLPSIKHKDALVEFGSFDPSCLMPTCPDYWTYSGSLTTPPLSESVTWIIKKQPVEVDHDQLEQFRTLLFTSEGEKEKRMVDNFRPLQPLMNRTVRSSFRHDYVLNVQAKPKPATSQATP
T7 sequence (P43166 whole entry): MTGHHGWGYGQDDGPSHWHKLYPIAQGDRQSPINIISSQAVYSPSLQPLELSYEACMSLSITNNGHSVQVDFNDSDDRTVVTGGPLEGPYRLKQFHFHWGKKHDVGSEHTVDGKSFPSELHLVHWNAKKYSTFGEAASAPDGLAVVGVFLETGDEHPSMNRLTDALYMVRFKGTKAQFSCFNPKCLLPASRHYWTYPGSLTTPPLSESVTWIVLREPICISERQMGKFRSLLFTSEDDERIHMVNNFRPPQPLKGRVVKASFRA
T2 sequence (P07451 whole entry): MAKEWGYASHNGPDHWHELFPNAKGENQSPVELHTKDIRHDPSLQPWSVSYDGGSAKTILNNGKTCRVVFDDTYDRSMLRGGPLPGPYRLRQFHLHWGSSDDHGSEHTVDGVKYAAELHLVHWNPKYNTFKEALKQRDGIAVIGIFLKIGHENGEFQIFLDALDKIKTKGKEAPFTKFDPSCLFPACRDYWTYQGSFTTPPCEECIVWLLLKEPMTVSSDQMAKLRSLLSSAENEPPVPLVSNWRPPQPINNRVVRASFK
T6 sequence (P35218 39-305): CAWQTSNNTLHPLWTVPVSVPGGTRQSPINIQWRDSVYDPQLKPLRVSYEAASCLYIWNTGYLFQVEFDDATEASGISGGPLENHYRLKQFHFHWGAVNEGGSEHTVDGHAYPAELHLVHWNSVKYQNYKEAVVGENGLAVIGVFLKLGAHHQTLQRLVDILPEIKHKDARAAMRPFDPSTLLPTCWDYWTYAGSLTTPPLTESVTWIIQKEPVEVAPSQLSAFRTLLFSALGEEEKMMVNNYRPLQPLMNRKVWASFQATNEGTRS
T1 sequence (P22748 19-312): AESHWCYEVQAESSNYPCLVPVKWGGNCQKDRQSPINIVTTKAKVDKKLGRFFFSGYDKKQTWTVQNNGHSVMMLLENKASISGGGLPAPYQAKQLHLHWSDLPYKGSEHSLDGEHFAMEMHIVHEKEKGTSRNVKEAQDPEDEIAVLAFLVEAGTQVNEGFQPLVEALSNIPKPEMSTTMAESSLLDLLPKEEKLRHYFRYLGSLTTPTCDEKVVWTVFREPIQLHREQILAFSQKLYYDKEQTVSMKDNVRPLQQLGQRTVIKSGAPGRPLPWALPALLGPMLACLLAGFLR

Ki (hCA IV) | Selectivity Index (SI) hCA I/hCA III (hCA III) | Selectivity Index (SI) hCA II/hCA III (hCA III) | Ki (hCA III) | Ki (hCA I) | Ki (hCA VB) | Ki (hCA XII) | Ki (hCA VA) | Ki (hCA VII) | Ki (hCA II) | melting point | Compound
5510 nM | 10.4 | 13.14 and 13.1 | 618 nM | 6430 nM | 1240 nM | 2100 nM | 4390 nM | 5330 nM | 8130 nM | 246 to 248 °C | NS(=O)(=O)CCCCn1cc(COc2ccc(F)cc2)nn1 [Compound 41, 4–(4-((4-Fluorophenoxy)methyl)-1H-1,2,3-triazol-1-yl)butane-1-sulfonamide]
875 nM | – | 4.2 | 989 nM | > 10000 nM | 2090 nM | 2630 nM | 7040 nM | 5410 nM | 4160 nM | > 300 °C | NS(=O)(=O)CCCn1cc(CNC(=O)Nc2ccc(C(F)(F)F)cc2)nn1 [Compound 33, 3–(4-((3–(4-(Trifluoromethyl)phenyl)ureido)methyl)-1H-1,2,3-triazol-1-yl)propane-1-sulfonamide]
8270 nM | 5.2 | 13.44 and 13.4 | 444 nM | 2320 nM | 1630 nM | 2720 nM | 2170 nM | 3650 nM | 5970 nM | 186 to 188 °C | COc1cccc(OCc2cn(CCCCS(N)(=O)=O)nn2)c1 [Compound 43, 4–(4-((3-Methoxyphenoxy)methyl)-1H-1,2,3-triazol-1-yl)butane-1-sulfonamide]
5440 nM | 2.1 | 4.4 | 554 nM | 1160 nM | 3030 nM | 1950 nM | 4810 nM | 2710 nM | 2450 nM | 273 to 274 °C | COc1ccc(OCc2cn(CCCS(N)(=O)=O)nn2)cc1 [Compound 29, 3–(4-((4-Methoxyphenoxy)methyl)-1H-1,2,3-triazol-1-yl)propane-1-sulfonamide]
> 10000 nM | – | 1.19 and 1.2 | 786 nM | > 10000 nM | 4000 nM | 1980 nM | 2040 nM | 4480 nM | 937 nM | 214 to 215 °C | COc1cccc(NC(=O)NCc2cn(CCCS(N)(=O)=O)nn2)c1 [Compound 35, 3–(4-((3–(3-Methoxyphenyl)ureido)methyl)-1H-1,2,3-triazol-1-yl)propane-1-sulfonamide]
> 10000 nM | 5.5 | 11.89 and 11.9 | 345 nM | 1910 nM | 1440 nM | 1100 nM | 2880 nM | 4680 nM | 4100 nM | 270 to 272 °C | COc1cccc(OCc2cn(CCCS(N)(=O)=O)nn2)c1 [Compound 30, 3–(4-((3-Methoxyphenoxy)methyl)-1H-1,2,3-triazol-1-yl)propane-1-sulfonamide]
5740 nM | 5.7 | 5.3 | 930 nM | 5300 nM | 8110 nM | 6730 nM | 3340 nM | 5640 nM | 4930 nM | 271 to 272 °C | Cc1ccc(NC(=O)NCc2cn(CCCCS(N)(=O)=O)nn2)cc1 [Compound 45, 4–(4-((3-(p-Tolyl)ureido)methyl)-1H-1,2,3-triazol-1-yl)butane-1-sulfonamide]
3590 nM | 9.7 | 1.6 | 553 nM | 5390 nM | 5870 nM | 2630 nM | 1800 nM | 3610 nM | 879 nM | > 300 °C | NS(=O)(=O)CCCCn1cc(CNC(=O)Nc2ccc(C(F)(F)F)cc2)nn1 [Compound 46, 4–(4-((3–(4-(Trifluoromethyl)phenyl)ureido)methyl)-1H-1,2,3-triazol-1-yl)butane-1-sulfonamide]
6160 nM | – | 3.8 | 772 nM | > 10000 nM | 1610 nM | 5030 nM | 8700 nM | 4400 nM | 2970 nM | 217 to 218 °C | Cc1ccc(NC(=O)NCc2cn(CCCS(N)(=O)=O)nn2)cc1 [Compound 32, 3–(4-((3-(p-Tolyl)ureido)methyl)-1H-1,2,3-triazol-1-yl)propane-1-sulfonamide]
5610 nM | – | 5.8 | 676 nM | 8540 nM | 6670 nM | 3070 nM | 6040 nM | 5300 nM | 3930 nM | 251 to 253 °C | COc1ccc(OCc2cn(CCCCS(N)(=O)=O)nn2)cc1 [Compound 42, 4–(4-((4-Methoxyphenoxy)methyl)-1H-1,2,3-triazol-1-yl)butane-1-sulfonamide]
> 10000 nM | 11.6 | 9.7 | 476 nM | 5520 nM | 1140 nM | 4660 nM | 4160 nM | 3900 nM | 4610 nM | 217 to 218 °C | COc1cccc(NC(=O)NCc2cn(CCCCS(N)(=O)=O)nn2)c1 [Compound 48, 4–(4-((3–(3-Methoxyphenyl)ureido)methyl)-1H-1,2,3-triazol-1-yl)butane-1-sulfonamide]
3610 nM | 8.0 | 9.5 | 818 nM | 6540 nM | 1530 nM | 5180 nM | 7780 nM | 7610 nM | 7770 nM | 221 to 223 °C | NS(=O)(=O)CCCCn1cc(COc2ccccc2)nn1 [Compound 40, 4–(4-(Phenoxymethyl)-1H-1,2,3-triazol-1-yl)butane-1-sulfonamide]
4460 nM | > 18.29 | 4.6 | 547 nM | > 10000 nM | 3740 nM | 4900 nM | 2650 nM | 2310 nM | 2500 nM | 239 to 241 °C | CCOC(=O)c1ccc(NC(=O)NCc2cn(CCCS(N)(=O)=O)nn2)cc1 [Compound 34, Ethyl 4–(3-((1–(3-sulfamoylpropyl)-1H-1,2,3-triazol-4-yl)methyl)ureido)benzoate]
4720 nM | 1.16 and 1.2 | 4.2 | 654 nM | 760 nM | 2890 nM | 2690 nM | 3870 nM | 2700 nM | 2720 nM | 254 to 255 °C | NS(=O)(=O)CCCn1cc(COc2ccccc2)nn1 [Compound 27, 3–(4-(Phenoxymethyl)-1H-1,2,3-triazol-1-yl)propane-1-sulfonamide]
– | – | – | – | > 10000 nM | – | 5820 nM | 8770 nM | 5150 nM | – | 282 to 285 °C | COc1ccc(NC(=O)NCc2cn(CCCCS(N)(=O)=O)nn2)c(C)c1 [Compound 49, 4–(4-((3–(4-Methoxy-2-methylphenyl)ureido)methyl)-1H-1,2,3-triazol-1-yl)butane-1-sulfonamide]

Compound | Ki (hCA IV) | Selectivity Index (SI) hCA I/hCA III (hCA III) | Selectivity Index (SI) hCA II/hCA III (hCA III) | Ki (hCA III) | Ki (hCA I) | Ki (hCA VB) | Ki (hCA XII) | Ki (hCA VA) | Ki (hCA VII) | Ki (hCA II) | melting point
Ethyl 1–(4-sulfamoylbutyl)-1H-1,2,3-triazole-4-carboxylate [Compound 50] | 3980 nM | 1.18 and 1.2 | 1.0 | 775 nM | 916 nM | 814 nM | 1020 nM | 912 nM | 809 nM | 772 nM | –
3–(4-Phenyl-1H-1,2,3-triazol-1-yl)propane-1-sulfonamide [Compound 38] | 959 nM | 1.21 and 1.2 | 1.4 | 502 nM | 607 nM | 1040 nM | 1060 nM | 1650 nM | 860 nM | 713 nM | –
4–(4-(3-Fluorophenyl)-1H-1,2,3-triazol-1-yl)butane-1-sulfonamide [Compound 52] | > 10000 nM | 2.5 | 26.2 | 310 nM | 778 nM | 2990 nM | 7810 nM | 1270 nM | 3230 nM | 8130 nM | –
3–(4-(3-Fluorophenyl)-1H-1,2,3-triazol-1-yl)propane-1-sulfonamide [Compound 39] | 2610 nM | 5.3 | 19.34 and 19.3 | 163 nM | 862 nM | 1310 nM | 1240 nM | 1570 nM | 6500 nM | 3140 nM | –
